This is an account of results in the kinase profiling compilation of Christmann-Franck et al. (2016).

Among the targets are AURKC (human) (UniProt Q9UQB9); GSK3B (human) (UniProt P49841); NEK7 (human) (UniProt Q8TDX7); SRPK1 (human) (UniProt Q96SB4); CAMKK1 (human) (UniProt Q8N5S9).
Test in all cases: radiometric filter-binding kinase assay

Chain of SRPK1 (human) (Q96SB4 whole entry, looked up): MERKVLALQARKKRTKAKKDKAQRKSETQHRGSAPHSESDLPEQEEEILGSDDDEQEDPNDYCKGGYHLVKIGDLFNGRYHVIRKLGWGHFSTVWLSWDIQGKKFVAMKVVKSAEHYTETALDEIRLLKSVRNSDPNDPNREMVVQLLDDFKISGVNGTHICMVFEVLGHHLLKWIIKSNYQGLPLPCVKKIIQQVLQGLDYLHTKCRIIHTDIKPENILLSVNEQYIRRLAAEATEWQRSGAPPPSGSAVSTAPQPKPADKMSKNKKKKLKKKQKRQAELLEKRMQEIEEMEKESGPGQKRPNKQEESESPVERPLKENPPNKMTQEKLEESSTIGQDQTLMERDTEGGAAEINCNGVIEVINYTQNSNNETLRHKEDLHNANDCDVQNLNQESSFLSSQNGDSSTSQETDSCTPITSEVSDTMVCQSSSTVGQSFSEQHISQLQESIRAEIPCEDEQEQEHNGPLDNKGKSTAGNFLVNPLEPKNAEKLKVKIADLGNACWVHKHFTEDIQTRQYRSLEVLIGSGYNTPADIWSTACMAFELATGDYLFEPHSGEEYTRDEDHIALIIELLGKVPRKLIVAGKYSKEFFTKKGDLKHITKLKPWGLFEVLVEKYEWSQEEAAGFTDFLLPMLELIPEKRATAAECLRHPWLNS
Chain of AURKC (human) (Q9UQB9 whole entry, looked up): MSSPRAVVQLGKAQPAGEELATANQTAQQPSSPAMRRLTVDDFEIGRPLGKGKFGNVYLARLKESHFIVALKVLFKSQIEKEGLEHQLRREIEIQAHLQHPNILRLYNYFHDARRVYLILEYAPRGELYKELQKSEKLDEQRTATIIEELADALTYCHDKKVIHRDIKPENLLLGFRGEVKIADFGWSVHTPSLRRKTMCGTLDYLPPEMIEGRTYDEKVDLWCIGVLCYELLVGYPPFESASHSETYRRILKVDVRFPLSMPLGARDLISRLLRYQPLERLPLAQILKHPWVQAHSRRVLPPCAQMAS
Chain of GSK3B (human) (P49841 whole entry, looked up): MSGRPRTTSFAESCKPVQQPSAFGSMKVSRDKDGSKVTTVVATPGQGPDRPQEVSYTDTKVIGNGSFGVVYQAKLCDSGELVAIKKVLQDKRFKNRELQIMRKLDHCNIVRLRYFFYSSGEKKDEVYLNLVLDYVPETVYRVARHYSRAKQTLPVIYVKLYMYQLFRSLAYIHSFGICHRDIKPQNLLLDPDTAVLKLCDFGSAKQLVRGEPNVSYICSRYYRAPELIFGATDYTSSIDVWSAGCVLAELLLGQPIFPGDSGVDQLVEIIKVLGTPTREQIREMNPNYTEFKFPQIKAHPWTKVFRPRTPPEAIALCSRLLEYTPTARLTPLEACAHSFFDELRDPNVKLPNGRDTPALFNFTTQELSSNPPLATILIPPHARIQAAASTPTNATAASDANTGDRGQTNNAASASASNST
Chain of CAMKK1 (human) (Q8N5S9 whole entry, looked up): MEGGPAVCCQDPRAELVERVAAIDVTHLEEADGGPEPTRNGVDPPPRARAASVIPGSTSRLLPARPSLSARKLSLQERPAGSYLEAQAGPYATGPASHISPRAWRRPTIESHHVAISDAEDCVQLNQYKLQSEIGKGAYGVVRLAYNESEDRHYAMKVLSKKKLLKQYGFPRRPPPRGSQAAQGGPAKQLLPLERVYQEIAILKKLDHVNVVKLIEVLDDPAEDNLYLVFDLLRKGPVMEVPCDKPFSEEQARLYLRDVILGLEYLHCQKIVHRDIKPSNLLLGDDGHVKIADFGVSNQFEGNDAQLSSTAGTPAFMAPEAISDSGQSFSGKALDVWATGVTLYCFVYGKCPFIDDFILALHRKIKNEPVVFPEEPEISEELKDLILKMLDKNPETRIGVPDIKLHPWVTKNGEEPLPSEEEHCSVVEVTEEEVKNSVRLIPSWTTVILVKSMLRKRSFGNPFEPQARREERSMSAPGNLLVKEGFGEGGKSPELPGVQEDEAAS
Chain of NEK7 (human) (Q8TDX7 whole entry, looked up): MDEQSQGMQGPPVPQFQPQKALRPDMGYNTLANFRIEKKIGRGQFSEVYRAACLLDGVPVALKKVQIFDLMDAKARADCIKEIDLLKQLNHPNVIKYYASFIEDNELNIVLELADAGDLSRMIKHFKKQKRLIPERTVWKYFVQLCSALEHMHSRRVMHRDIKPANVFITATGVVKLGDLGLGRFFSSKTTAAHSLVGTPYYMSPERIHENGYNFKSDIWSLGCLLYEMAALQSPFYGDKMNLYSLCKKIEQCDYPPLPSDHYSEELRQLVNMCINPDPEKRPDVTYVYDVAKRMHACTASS

Regarding `COc1ccc2c(c1)c1c3c(c4c5ccccc5n(C)c4c1n2CC(O)CN(C)C)C(=O)NC3=O` (stereo not given), the residual activity (in general, the signal under treatment as a percentage of the control signal) on AURKC (human) (compound 0.1 µM) is 48%; at AURKC (human) (compound 1.0 µM), 13%; on AURKC (human) (compound 10.0 µM) it was 7%; on GSK3B (human) (compound 0.1 µM), 67%; on GSK3B (human) (compound 1.0 µM), 20%; at GSK3B (human) (compound 10.0 µM), 5%. The residual activity is 94% at NEK7 (human) (compound 0.1 µM); 84% at NEK7 (human) (compound 1.0 µM); 82% at NEK7 (human) (compound 10.0 µM); 113% on SRPK1 (human) (compound 0.1 µM); 89% on SRPK1 (human) (compound 1.0 µM); 77% on SRPK1 (human) (compound 10.0 µM). Besides, the values for the residual activity at CAMKK1 (human) (compound 0.1 µM), at CAMKK1 (human) (compound 1.0 µM) and at CAMKK1 (human) (compound 10.0 µM) were 109%, 97% and 101%, respectively.
In the case of `Cn1nc(Nc2ccc(F)cc2)c2c(N)ncnc21`, the residual activity worked out at 125% on AURKC (human) (compound 1.0 µM); 117% on AURKC (human) (compound 10.0 µM); 119% at GSK3B (human) (compound 1.0 µM); 125% on GSK3B (human) (compound 10.0 µM); 94% on NEK7 (human) (compound 1.0 µM); 99% at NEK7 (human) (compound 10.0 µM). Also, the residual activity came out at 137% at SRPK1 (human) (compound 1.0 µM), 129% on SRPK1 (human) (compound 10.0 µM), 89% on CAMKK1 (human) (compound 1.0 µM) and 112% at CAMKK1 (human) (compound 10.0 µM).
For `Cc1cccc(Nc2nn(C)c3ncnc(N)c23)c1`, the residual activity at AURKC (human) (compound 1.0 µM) worked out at 92%; at AURKC (human) (compound 10.0 µM) it was 117%; on GSK3B (human) (compound 1.0 µM), 114%; at GSK3B (human) (compound 10.0 µM) it was 133%; at NEK7 (human) (compound 1.0 µM) it was 88%; on NEK7 (human) (compound 10.0 µM) it was 91%. Moreover, the residual activity was 107% on SRPK1 (human) (compound 1.0 µM), 98% on SRPK1 (human) (compound 10.0 µM), 111% at CAMKK1 (human) (compound 1.0 µM) and 114% on CAMKK1 (human) (compound 10.0 µM).
Regarding `Oc1ccc(/C=C/c2cc(O)cc(O)c2)cc1`, the residual activity turned out to be 75% on AURKC (human) (compound 1.0 µM); 32% at AURKC (human) (compound 50.0 µM); 100% at GSK3B (human) (compound 1.0 µM); 80% on GSK3B (human) (compound 10.0 µM); 37% on GSK3B (human) (compound 50.0 µM); 94% on NEK7 (human) (compound 1.0 µM). The residual activity on NEK7 (human) (compound 50.0 µM) worked out at 95%; at SRPK1 (human) (compound 1.0 µM), 111%; on SRPK1 (human) (compound 10.0 µM), 87%; on SRPK1 (human) (compound 50.0 µM) it was 93%; at CAMKK1 (human) (compound 1.0 µM), 98%; on CAMKK1 (human) (compound 50.0 µM), 30%.
Consider `N#Cc1c(O)c2c(-c3ccc(-c4ccccc4O)cc3)csc2[nH]c1=O`, for which the residual activity worked out at 30% on AURKC (human) (compound 50.0 µM); 80% on GSK3B (human) (compound 10.0 µM); 17% at GSK3B (human) (compound 50.0 µM); 46% on GSK3B (human) (compound 100.0 µM); 102% at NEK7 (human) (compound 50.0 µM); 107% on SRPK1 (human) (compound 10.0 µM). Further, the residual activity was found to be 42% at SRPK1 (human) (compound 50.0 µM) and 35% on SRPK1 (human) (compound 100.0 µM).
